test system: HCV 1b-Con1 replicon; assay: HCV 1b-Con1 replicon assay in the presence of 5% FBS; type: cell-based; settings: Hepatitis C virus

Structure (SMILES) | EC50 [nM]
COC(=O)N[C@H](C(=O)N1CCC[C@H]1c1nc2cc([C@H]3CC[C@H](c4ccc5[nH]c([C@@H]6CCCN6C(=O)[C@@H](NC(=O)OC)C6CCCC6)nc5c4)N3c3cc(F)c(N4CCC(c5ccccc5)CC4)c(F)c3)ccc2[nH]1)C1CCCC1 [Example 3.24, dimethyl ({(2R,5R)-1-[3,5-difluoro-4-(4-phenylpiperidin-1-yl)phenyl]pyrrolidine-2,5-diyl}bis{1H-benzimidazole-5,2-diyl(2S)pyrrolidine-2,1-diyl[(1S)-1-cyclopentyl-2-oxoethane-2,1-diyl]})biscarbamate] | < 0.1
COC(=O)N[C@H](C(=O)N1CCC[C@H]1c1nc2ccc([C@H]3CC[C@H](c4ccc5nc([C@@H]6CCCN6C(=O)[C@@H](NC(=O)OC)C(C)C)[nH]c5c4)N3c3cc(F)c(N4CCC(c5cccc6ccccc56)CC4)c(F)c3)cc2[nH]1)C(C)C [Example 2.15, methyl {(2S)-1-[(2S)-2-{5-[(2R,5R)-1-{3,5-difluoro-4-[4-(1-naphthyl)piperidin-1-yl]phenyl}-5-{2-[(2S)-1-{(2S)-2-[(methoxycarbonyl)amino]-3-methylbutanoyl}pyrrolidin-2-yl]-1H-benzimidazol-5-yl}pyrrolidin-2-yl]-1H-benzimidazol-2-yl}pyrrolidin-1-yl]-3-methyl-1-oxobutan-2-yl}carbamate] | < 0.1
COC(=O)N[C@H](C(=O)N1CCC[C@H]1c1nc2cc([C@H]3CC[C@H](c4ccc5[nH]c([C@@H]6CCCN6C(=O)[C@@H](NC(=O)OC)C(C)C)nc5c4)N3c3ccc(N4CCCCC4)c(C)c3)ccc2[nH]1)C(C)C [Example 4.2, methyl {(2S)-1-[(2S)-2-(5-{(2R,5R)-5-{2-[(2S)-1-{(2S)-2-[(methoxycarbonyl)amino]-3-methylbutanoyl}pyrrolidin-2-yl]-1H-benzimidazol-5-yl}-1-[3-methyl-4-(piperidin-1-yl)phenyl]pyrrolidin-2-yl}-1H-benzimidazol-2-yl)pyrrolidin-1-yl]-3-methyl-1-oxobutan-2-yl}carbamate] | < 0.1
COC(=O)N[C@H](C(=O)N1CCC[C@H]1c1nc2cc([C@H]3CC[C@H](c4ccc5[nH]c([C@@H]6CCCN6C(=O)[C@@H](NC(=O)OC)[C@@H](C)OC)nc5c4)N3c3cc(F)c(N4CCC(c5ccccc5)CC4)c(F)c3)ccc2[nH]1)[C@@H](C)OC [Example 5.3, methyl {(2S,3R)-1-[(2S)-2-{5-[(2R,5R)-1-[3,5-difluoro-4-(4-phenylpiperidin-1-yl)phenyl]-5-(2-{(2S)-1-[N-(methoxycarbonyl)-O-methyl-L-threonyl]pyrrolidin-2-yl}-1H-benzimidazol-5-yl)pyrrolidin-2-yl]-1H-benzimidazol-2-yl}pyrrolidin-1-yl]-3-methoxy-1-oxobutan-2-yl}carbamate] | < 0.1
COC(=O)N[C@H](C(=O)N1CCC[C@H]1c1nc2cc([C@H]3CC[C@H](c4ccc5[nH]c([C@@H]6CCCN6C(=O)[C@@H](NC(=O)OC)C(C)C)nc5c4)N3c3cc(F)c(N4CCC(C(C)=O)(c5ccccc5)CC4)c(F)c3)ccc2[nH]1)C(C)C [Example 4.17, methyl {(2S)-1-[(2S)-2-{5-[(2R,5R)-1-[4-(4-acetyl-4-phenylpiperidin-1-yl)-3,5-difluorophenyl]-5-{2-[(2S)-1-{(2S)-2-[(methoxycarbonyl)amino]-3-methylbutanoyl}pyrrolidin-2-yl]-1H-benzimidazol-5-yl}pyrrolidin-2-yl]-1H-benzimidazol-2-yl}pyrrolidin-1-yl]-3-methyl-1-oxobutan-2-yl}carbamate] | < 0.1
COC(=O)N[C@H](C(=O)N1CCC[C@H]1c1nc2cc([C@H]3CC[C@H](c4ccc5[nH]c([C@@H]6CCCN6C(=O)[C@@H](NC(=O)OC)C6CCOCC6)nc5c4)N3c3cc(F)c(N4CCC(c5ccccc5)CC4)c(F)c3)ccc2[nH]1)C1CCOCC1 [Example 3.23, dimethyl ({(2R,5R)-1-[3,5-difluoro-4-(4-phenylpiperidin-1-yl)phenyl]pyrrolidine-2,5-diyl}bis{1H-benzimidazole-5,2-diyl(2S)pyrrolidine-2,1-diyl [(1S)-2-oxo-1-(tetrahydro-2H-pyran-4-yl)ethane-2,1-diyl]})biscarbamate] | < 0.1
COC(=O)N[C@H](C(=O)N1CCC[C@H]1c1nc2cc([C@H]3CC[C@H](c4ccc5[nH]c([C@@H]6CCCN6C(=O)[C@@H](NC(=O)OC)C(C)C)nc5c4)N3c3cc(F)c(N4CCC5(CCCCC5)CC4)c(F)c3)ccc2[nH]1)C(C)C [Example 5.12, methyl {(2S)-1-[(2S)-2-{5-[(2R,5R)-1-[4-(3-azaspiro[5.5]undec-3-yl)-3,5-difluorophenyl]-5-{2-[(2S)-1-{(2S)-2-[(methoxycarbonyl)amino]-3-methylbutanoyl}pyrrolidin-2-yl]-1H-benzimidazol-5-yl}pyrrolidin-2-yl]-1H-benzimidazol-2-yl}pyrrolidin-1-yl]-3-methyl-1-oxobutan-2-yl}carbamate] | < 0.1
COC(=O)N[C@H](C(=O)N1[C@H](c2nc3cc([C@H]4CC[C@H](c5ccc6[nH]c([C@@H]7C[C@@H]8CCC[C@@H]8N7C(=O)[C@@H](NC(=O)OC)C7CCOCC7)nc6c5)N4c4cc(F)c(N5CCCCC5)c(F)c4)ccc3[nH]2)C[C@@H]2CCC[C@@H]21)C1CCOCC1 [Example 3.32, dimethyl ({(2R,5R)-1-[3,5-difluoro-4-(piperidin-1-yl)phenyl]pyrrolidine-2,5-diyl}bis{1H-benzimidazole-5,2-diyl(2S,3aS,6aS)hexahydrocyclopenta[b]pyrrole-2,1(2H)-diyl[(1S)-2-oxo-1-(tetrahydro-2H-pyran-4-yl)ethane-2,1-diyl]})biscarbamate] | < 0.1
CCC1(COc2ccc(N3[C@@H](c4ccc5[nH]c([C@@H]6CCCN6C(=O)[C@@H](NC(=O)OC)C(C)C)nc5c4)CC[C@@H]3c3ccc4[nH]c([C@@H]5CCCN5C(=O)[C@@H](NC(=O)OC)C(C)C)nc4c3)cc2)COC1 [Example 1.7, methyl {(2S)-1-[(2S)-2-{5-[(2R,5R)-1-{4-[(3-ethyloxetan-3-yl)methoxy]phenyl}-5-{2-[(2S)-1-{(2S)-2-[(methoxycarbonyl)amino]-3-methylbutanoyl}pyrrolidin-2-yl]-1H-benzimidazol-5-yl}pyrrolidin-2-yl]-1H-benzimidazol-2-yl}pyrrolidin-1-yl]-3-methyl-1-oxobutan-2-yl}carbamate] | < 0.1
COC(=O)N[C@H](C(=O)N1CCC[C@H]1c1nc2cc([C@H]3CC[C@H](c4ccc5nc([C@@H]6CCCN6C(=O)[C@@H](NC(=O)OC)C(C)C)[nH]c5c4)N3c3cc(F)c(N4CCCC(c5ccccc5)C4)c(F)c3)ccc2[nH]1)C(C)C (stereo partly drawn) [Example 4.32, methyl {(2S)-1-[(2S)-2-{5-[(2R,5R)-1-[3,5-difluoro-4-(3-phenylpiperidin-1-yl)phenyl]-5-{2-[(2S)-1-{(2S)-2-[(methoxycarbonyl)amino]-3-methylbutanoyl}pyrrolidin-2-yl]-1H-benzimidazol-6-yl}pyrrolidin-2-yl]-1H-benzimidazol-2-yl}pyrrolidin-1-yl]-3-methyl-1-oxobutan-2-yl}carbamate] | < 0.1

Reference: US20120220562A1, “Anti-Viral Compounds” (ABBOTT LABAORATORIES, priority 2011, published 2012)
